Results as given in patent publication US20100137449A1, “SUBSTITUTED 1,3-CYCLOPENTADIONE MULTI-TARGET PROTEIN KINASE MODULATORS OF CANCER, ANGIOGENESIS AND THE INFLAMMATORY PATHWAYS ASSOCIATED THEREWITH” (METAPROTEOMICS, LLC, priority 2007, published 2010).

How the values were obtained:
Assay in all cases: KinaseProfiler Assay
SAPK3(h) = biological target: T1, SAPK3(h) (Homo sapiens, UniProt P53778)
T1 sequence (P53778 1-367): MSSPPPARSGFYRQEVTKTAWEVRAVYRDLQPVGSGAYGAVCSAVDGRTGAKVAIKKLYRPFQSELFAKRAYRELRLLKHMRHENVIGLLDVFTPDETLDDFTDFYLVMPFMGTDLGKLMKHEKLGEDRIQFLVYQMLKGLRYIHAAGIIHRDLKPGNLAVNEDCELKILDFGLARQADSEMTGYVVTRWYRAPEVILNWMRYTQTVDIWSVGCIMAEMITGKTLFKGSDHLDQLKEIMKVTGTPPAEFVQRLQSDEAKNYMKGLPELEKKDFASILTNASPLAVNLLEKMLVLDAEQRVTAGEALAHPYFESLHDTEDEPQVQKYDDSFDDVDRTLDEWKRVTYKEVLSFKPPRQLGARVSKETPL

EphA2(h) = EphA2(h) (Homo sapiens, UniProt P29317)
Haspin(h) = biological target: T2, Haspin(h) (Homo sapiens, UniProt Q8TF76)
T2 sequence (Q8TF76 1-798): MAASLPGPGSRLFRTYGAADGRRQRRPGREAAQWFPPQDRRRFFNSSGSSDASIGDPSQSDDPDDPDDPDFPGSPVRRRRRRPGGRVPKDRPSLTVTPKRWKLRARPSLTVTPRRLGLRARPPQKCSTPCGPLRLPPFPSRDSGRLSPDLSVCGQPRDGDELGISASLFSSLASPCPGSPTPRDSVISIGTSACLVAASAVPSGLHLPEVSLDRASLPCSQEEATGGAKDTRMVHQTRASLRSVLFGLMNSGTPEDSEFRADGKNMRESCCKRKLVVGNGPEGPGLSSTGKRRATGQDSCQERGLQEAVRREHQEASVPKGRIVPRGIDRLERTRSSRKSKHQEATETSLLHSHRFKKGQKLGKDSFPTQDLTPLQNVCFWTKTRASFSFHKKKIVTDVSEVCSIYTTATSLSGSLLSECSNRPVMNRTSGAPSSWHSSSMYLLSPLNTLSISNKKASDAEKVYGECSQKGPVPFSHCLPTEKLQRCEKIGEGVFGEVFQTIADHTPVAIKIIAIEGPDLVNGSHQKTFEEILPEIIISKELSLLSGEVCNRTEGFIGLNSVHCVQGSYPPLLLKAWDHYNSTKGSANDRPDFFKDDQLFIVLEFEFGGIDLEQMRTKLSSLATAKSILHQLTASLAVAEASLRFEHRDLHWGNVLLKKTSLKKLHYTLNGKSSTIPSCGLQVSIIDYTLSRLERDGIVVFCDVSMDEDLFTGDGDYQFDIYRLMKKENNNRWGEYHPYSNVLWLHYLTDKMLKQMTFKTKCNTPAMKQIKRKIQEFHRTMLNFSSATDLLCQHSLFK

Abl(T315I)(h) = Abl(T315I)(h) (Homo sapiens, UniProt P00519, T315I)
CHK2(h) = CHK2(h) (Homo sapiens, UniProt O96017)
MRCKβ(h) = MRCKβ(h) (Homo sapiens, UniProt Q9Y5S2)
CaMKIIγ(h) = CaMKIIγ(h) (Homo sapiens, UniProt Q13555)
CK1γ2(h) = CK1γ2(h) (Homo sapiens, UniProt P78368)
SGK(h) = biological target: T3, SGK(h) (Homo sapiens, UniProt O00141)
T3 sequence (O00141 1-431): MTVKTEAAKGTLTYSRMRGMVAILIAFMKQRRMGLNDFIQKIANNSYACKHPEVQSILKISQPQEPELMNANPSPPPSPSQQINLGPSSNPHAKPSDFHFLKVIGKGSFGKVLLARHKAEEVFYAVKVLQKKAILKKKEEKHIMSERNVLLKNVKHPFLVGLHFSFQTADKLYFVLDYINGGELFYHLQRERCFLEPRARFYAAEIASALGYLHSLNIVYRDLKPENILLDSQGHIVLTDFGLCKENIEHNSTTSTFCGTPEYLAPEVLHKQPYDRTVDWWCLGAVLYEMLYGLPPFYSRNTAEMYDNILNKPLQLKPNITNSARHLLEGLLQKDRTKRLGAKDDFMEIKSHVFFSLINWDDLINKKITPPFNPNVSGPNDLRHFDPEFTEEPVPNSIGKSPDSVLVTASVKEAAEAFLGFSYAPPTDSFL

Rsk1(h) = Rsk1(h) (Homo sapiens, UniProt Q15418)
Rsk1(h), sequence (Q15418 whole entry): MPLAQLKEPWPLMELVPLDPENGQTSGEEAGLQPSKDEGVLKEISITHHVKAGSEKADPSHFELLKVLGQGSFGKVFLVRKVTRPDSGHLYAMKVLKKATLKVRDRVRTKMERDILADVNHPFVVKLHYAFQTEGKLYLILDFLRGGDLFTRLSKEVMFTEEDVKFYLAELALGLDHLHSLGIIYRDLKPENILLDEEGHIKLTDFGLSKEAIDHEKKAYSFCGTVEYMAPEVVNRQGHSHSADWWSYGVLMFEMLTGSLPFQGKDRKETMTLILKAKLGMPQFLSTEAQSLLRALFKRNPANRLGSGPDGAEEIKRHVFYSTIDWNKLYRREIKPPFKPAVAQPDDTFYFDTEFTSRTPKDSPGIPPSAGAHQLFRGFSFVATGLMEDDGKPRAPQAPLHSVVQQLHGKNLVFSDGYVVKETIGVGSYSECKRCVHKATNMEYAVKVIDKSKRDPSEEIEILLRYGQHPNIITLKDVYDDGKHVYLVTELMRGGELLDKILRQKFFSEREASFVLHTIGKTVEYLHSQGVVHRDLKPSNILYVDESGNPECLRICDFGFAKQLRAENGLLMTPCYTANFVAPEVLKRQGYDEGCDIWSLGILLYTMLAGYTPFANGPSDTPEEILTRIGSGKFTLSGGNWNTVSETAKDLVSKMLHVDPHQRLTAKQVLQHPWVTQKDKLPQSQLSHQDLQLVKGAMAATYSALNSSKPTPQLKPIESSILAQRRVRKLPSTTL

CK1γ2(h), sequence (P78368 whole entry): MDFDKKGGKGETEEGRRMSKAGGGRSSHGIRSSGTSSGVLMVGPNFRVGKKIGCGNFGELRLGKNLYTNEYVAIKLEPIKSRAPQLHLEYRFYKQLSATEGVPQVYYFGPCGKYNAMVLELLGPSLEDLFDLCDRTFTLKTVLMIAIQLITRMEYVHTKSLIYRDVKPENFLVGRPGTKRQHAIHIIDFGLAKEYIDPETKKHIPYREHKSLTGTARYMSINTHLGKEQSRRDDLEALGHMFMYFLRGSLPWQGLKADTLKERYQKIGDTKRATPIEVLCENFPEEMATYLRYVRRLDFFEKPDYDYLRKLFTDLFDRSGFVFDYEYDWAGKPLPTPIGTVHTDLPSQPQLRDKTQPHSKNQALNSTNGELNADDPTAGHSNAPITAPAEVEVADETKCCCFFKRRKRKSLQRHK
EphA2(h), sequence (P29317 24-976): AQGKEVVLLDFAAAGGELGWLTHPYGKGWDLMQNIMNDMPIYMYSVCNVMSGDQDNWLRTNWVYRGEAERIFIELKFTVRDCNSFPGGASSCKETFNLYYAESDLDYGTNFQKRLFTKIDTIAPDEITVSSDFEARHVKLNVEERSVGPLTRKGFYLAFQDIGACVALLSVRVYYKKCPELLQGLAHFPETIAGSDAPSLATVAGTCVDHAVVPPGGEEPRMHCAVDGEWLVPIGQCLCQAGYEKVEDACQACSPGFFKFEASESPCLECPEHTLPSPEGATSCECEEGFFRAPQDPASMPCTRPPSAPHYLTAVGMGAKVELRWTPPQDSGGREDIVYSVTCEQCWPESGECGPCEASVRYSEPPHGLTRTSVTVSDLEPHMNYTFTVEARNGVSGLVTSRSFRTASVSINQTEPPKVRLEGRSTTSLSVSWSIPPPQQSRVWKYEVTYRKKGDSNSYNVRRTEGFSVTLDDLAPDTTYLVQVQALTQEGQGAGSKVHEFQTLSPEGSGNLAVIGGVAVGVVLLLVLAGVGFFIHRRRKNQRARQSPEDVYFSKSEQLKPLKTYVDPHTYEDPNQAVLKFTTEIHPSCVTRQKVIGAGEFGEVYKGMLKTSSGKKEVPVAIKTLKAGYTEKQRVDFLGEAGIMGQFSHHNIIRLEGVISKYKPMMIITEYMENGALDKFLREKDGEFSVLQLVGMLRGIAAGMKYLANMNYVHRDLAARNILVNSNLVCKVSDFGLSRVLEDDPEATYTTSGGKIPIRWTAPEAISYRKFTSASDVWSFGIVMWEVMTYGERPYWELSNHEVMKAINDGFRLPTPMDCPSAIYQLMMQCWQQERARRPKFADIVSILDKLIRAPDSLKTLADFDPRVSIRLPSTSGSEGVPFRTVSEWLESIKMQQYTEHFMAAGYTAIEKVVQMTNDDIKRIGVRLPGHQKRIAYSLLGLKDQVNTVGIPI
MRCKβ(h), sequence (Q9Y5S2 whole entry): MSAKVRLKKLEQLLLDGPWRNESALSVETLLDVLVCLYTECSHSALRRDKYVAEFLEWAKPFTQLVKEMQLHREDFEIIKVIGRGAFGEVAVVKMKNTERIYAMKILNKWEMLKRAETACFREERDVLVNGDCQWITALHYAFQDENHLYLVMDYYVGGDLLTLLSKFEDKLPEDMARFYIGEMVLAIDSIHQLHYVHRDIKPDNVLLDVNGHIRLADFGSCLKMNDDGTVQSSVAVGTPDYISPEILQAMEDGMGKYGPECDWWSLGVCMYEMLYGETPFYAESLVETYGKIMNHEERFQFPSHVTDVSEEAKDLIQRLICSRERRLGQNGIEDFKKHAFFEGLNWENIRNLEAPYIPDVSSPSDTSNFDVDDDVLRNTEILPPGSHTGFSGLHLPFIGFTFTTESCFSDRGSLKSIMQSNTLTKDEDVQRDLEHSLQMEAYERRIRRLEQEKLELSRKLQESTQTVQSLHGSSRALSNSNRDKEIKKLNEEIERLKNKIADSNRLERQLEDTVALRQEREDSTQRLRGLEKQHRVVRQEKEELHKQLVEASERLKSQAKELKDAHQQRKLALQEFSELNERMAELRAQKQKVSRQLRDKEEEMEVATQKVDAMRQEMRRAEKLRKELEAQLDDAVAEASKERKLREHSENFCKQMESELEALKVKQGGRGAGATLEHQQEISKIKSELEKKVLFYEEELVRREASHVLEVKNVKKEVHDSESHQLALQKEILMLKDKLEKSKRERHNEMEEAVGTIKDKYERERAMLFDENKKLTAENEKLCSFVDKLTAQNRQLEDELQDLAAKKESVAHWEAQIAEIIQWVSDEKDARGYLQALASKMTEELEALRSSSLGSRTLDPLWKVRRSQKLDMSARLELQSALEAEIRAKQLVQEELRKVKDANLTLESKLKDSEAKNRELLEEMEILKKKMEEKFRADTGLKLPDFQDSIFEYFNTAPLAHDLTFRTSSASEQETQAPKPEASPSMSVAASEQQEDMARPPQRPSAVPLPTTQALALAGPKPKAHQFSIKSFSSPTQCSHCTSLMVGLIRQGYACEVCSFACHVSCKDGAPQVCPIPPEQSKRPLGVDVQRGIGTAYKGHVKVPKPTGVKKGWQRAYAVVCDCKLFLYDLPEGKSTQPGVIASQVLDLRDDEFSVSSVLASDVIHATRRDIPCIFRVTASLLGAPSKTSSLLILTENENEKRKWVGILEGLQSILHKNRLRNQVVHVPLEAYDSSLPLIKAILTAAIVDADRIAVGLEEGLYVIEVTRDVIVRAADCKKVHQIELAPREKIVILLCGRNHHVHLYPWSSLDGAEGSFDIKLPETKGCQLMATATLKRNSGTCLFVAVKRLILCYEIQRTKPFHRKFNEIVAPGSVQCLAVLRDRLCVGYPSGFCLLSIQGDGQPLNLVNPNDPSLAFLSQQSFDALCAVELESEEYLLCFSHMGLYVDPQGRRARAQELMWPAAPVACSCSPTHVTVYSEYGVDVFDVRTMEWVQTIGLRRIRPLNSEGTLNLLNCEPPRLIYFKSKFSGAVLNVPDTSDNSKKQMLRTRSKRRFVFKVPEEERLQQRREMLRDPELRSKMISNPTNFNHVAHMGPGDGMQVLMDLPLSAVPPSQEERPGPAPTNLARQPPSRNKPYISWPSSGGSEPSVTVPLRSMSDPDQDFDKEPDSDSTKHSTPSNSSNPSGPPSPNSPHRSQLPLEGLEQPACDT
CHK2(h), sequence (O96017 whole entry): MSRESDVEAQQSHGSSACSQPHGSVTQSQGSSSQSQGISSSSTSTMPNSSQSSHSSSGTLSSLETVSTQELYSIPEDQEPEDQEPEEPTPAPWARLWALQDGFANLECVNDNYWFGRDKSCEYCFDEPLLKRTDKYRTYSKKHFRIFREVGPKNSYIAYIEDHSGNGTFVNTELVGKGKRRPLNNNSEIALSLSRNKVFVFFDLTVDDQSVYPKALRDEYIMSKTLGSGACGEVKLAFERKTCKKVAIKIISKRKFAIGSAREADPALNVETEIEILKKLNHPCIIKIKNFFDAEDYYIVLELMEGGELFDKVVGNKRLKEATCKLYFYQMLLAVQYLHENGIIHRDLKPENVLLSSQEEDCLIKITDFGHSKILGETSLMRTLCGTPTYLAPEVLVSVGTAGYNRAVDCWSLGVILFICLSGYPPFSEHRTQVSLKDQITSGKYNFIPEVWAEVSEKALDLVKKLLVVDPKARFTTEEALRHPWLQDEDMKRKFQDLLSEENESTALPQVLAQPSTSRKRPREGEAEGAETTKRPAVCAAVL
CaMKIIγ(h), sequence (Q13555 whole entry): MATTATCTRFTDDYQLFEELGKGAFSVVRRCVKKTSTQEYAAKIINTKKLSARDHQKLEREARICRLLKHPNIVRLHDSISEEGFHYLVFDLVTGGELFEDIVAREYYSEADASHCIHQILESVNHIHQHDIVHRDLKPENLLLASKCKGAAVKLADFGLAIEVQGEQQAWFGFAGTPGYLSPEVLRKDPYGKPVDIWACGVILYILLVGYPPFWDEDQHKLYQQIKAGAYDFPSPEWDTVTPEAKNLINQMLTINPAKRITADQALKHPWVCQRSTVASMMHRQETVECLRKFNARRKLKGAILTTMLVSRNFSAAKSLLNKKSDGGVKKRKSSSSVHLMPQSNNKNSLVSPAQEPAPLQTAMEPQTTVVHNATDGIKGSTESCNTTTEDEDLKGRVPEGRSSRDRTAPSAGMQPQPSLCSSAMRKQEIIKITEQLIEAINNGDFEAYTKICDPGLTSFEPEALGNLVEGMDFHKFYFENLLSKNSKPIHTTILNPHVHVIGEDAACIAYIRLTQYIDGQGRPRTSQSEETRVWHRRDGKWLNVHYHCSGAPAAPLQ

**Q.** What does the source list for `CC(C)CCC(=O)[C@]1(O)C(O)=C(C(=O)C(C)C)C(=O)[C@H]1CCC(C)C` [TH2, tetrahydroiso-cohumulone]?
**A.** kinase inhibition (SAPK3(h); 1 μg/ml): 109% of control; kinase inhibition (SAPK3(h); 5 μg/ml): 99% of control; kinase inhibition (SAPK3(h); 25 μg/ml): 114% of control; kinase inhibition (SAPK3(h); 50 μg/ml): 122% of control; kinase inhibition (SAPK3(h); 100 μg/ml): 106% of control; kinase inhibition (EphA2(h); 1 μg/ml): 102% of control; kinase inhibition (EphA2(h); 5 μg/ml): 104% of control; kinase inhibition (EphA2(h); 25 μg/ml): 105% of control; kinase inhibition (EphA2(h); 50 μg/ml): 99% of control; kinase inhibition (EphA2(h); 100 μg/ml): 92% of control; kinase inhibition (Haspin(h); 1 μg/ml): 105% of control; kinase inhibition (Haspin(h); 5 μg/ml): 95% of control; kinase inhibition (Haspin(h); 25 μg/ml): 90% of control; kinase inhibition (Haspin(h); 50 μg/ml): 76% of control; kinase inhibition (Haspin(h); 100 μg/ml): 49% of control; kinase inhibition (Abl(T315I)(h); 1 μg/ml): 102% of control; kinase inhibition (Abl(T315I)(h); 5 μg/ml): 98% of control; kinase inhibition (Abl(T315I)(h); 25 μg/ml): 79% of control; kinase inhibition (Abl(T315I)(h); 50 μg/ml): 68% of control; kinase inhibition (Abl(T315I)(h); 100 μg/ml): 58% of control; kinase inhibition (CHK2(h); 1 μg/ml): 107% of control; kinase inhibition (CHK2(h); 5 μg/ml): 107% of control; kinase inhibition (CHK2(h); 25 μg/ml): 105% of control; kinase inhibition (CHK2(h); 50 μg/ml): 108% of control; kinase inhibition (CHK2(h); 100 μg/ml): 97% of control; kinase inhibition (MRCKβ(h); 1 μg/ml): 110% of control; kinase inhibition (MRCKβ(h); 5 μg/ml): 114% of control; kinase inhibition (MRCKβ(h); 25 μg/ml): 109% of control; kinase inhibition (MRCKβ(h); 50 μg/ml): 104% of control; kinase inhibition (MRCKβ(h); 100 μg/ml): 99% of control; kinase inhibition (CaMKIIγ(h); 1 μg/ml): 109% of control; kinase inhibition (CaMKIIγ(h); 5 μg/ml): 109% of control; kinase inhibition (CaMKIIγ(h); 25 μg/ml): 131% of control; kinase inhibition (CaMKIIγ(h); 50 μg/ml): 108% of control; kinase inhibition (CaMKIIγ(h); 100 μg/ml): 101% of control; kinase inhibition (CK1γ2(h); 1 μg/ml): 103% of control; kinase inhibition (CK1γ2(h); 5 μg/ml): 96% of control; kinase inhibition (CK1γ2(h); 25 μg/ml): 79% of control; kinase inhibition (CK1γ2(h); 50 μg/ml): 54% of control; kinase inhibition (CK1γ2(h); 100 μg/ml): 49% of control; kinase inhibition (SGK(h); 1 μg/ml): 106% of control; kinase inhibition (SGK(h); 5 μg/ml): 96% of control; kinase inhibition (SGK(h); 25 μg/ml): 97% of control; kinase inhibition (SGK(h); 50 μg/ml): 92% of control; kinase inhibition (SGK(h); 100 μg/ml): 76% of control; kinase inhibition (Rsk1(h); 1 μg/ml): 97% of control; kinase inhibition (Rsk1(h); 5 μg/ml): 95% of control; kinase inhibition (Rsk1(h); 25 μg/ml): 65% of control; kinase inhibition (Rsk1(h); 50 μg/ml): 53% of control; kinase inhibition (Rsk1(h); 100 μg/ml): 32% of control
